Assay results taken from PubChem BioAssay (NCI).
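Exposure lasted 48 hours, with cells grown in 96-well plates and compounds tested at five concentrations. GI50 marks 50% less growth. TGI: total growth inhibition.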

Assays:
Test in all cases: NCI-60 cell line screen, 48 h
SN12C renal = system: SN12C renal
MDA-MB-435 = system: MDA-MB-435
LOX IMVI melanoma = system: LOX IMVI melanoma
T-47D breast = system: T-47D breast
HT29 colon = system: HT29 colon
CAKI-1 renal = system: CAKI-1 renal
UACC-62 melanoma = system: UACC-62 melanoma
NCI/ADR-RES ovarian = system: NCI/ADR-RES ovarian
OVCAR-5 ovarian = system: OVCAR-5 ovarian
MDA-MB-231 breast = system: MDA-MB-231 breast
OVCAR-3 ovarian = system: OVCAR-3 ovarian
HCC-2998 colon = system: HCC-2998 colon
U251 CNS = system: U251 CNS
MOLT-4 leukemia = system: MOLT-4 leukemia
SW-620 colon = system: SW-620 colon
HCT-116 colon = system: HCT-116 colon

Row | Structure (SMILES) | TGI (SN12C renal) | TGI (MDA-MB-435) | TGI (LOX IMVI melanoma) | TGI (T-47D breast) | TGI (HT29 colon) | TGI (CAKI-1 renal) | TGI (UACC-62 melanoma) | TGI (NCI/ADR-RES ovarian) | TGI (OVCAR-5 ovarian) | TGI (MDA-MB-231 breast) | TGI (OVCAR-3 ovarian) | TGI (HCC-2998 colon) | TGI (U251 CNS) | TGI (MOLT-4 leukemia) | TGI (SW-620 colon) | TGI (HCT-116 colon) | GI50 (T-47D breast)
1 | CN1CCCOC(c2ccc([N+](=O)[O-])cc2)O1 (centres undefined) | > 100 µM | > 100 µM | > 100 µM | > 100 µM | > 100 µM | > 100 µM | > 100 µM | > 100 µM | > 100 µM | > 100 µM | > 100 µM | > 100 µM | > 100 µM | > 100 µM | > 100 µM | > 100 µM | –
2 | Cc1c(F)c(N)c2c(=O)cc(-c3ccc(N)c(F)c3)oc2c1F | 56.7 µM | > 100 µM | 55.8 µM | 16 µM | 98.6 µM | 0.114 µM | 31 µM | 42.4 µM | 15.8 µM | 46.3 µM | > 100 µM | > 100 µM | 33.1 µM | > 100 µM | > 100 µM | 38.2 µM | –
3 | O=C(NNCc1ccco1)c1cc2ccccc2[nH]1 | > 100 µM | > 100 µM | > 100 µM | > 100 µM | > 100 µM | > 100 µM | > 100 µM | > 80.8 µM | > 100 µM | > 100 µM | > 95 µM | > 90.1 µM | > 40.9 µM | > 100 µM | > 100 µM | > 100 µM | –
4 | O=C1C=CC2(O)OCCN(CCO)C2=C1 (centres undefined) (tested in a mixture with another compound) | > 100 µM | > 100 µM | > 100 µM | > 100 µM | > 100 µM | > 100 µM | > 100 µM | > 100 µM | > 100 µM | > 100 µM | > 100 µM | > 100 µM | > 100 µM | > 100 µM | > 100 µM | > 100 µM | –
5 | COCn1cnc2c(=O)n(-c3ccc(OC)cc3)c(=S)n(-c3ccc(OC)cc3)c21 | > 100 µM | > 100 µM | > 100 µM | > 100 µM | > 100 µM | > 100 µM | > 100 µM | > 100 µM | > 100 µM | > 100 µM | > 100 µM | > 100 µM | > 100 µM | > 100 µM | > 100 µM | > 100 µM | –
6 | Nc1ccc(S(=O)(=O)Nc2ccc(Nc3c4ccccc4nc4ccccc34)cc2)cc1 | 0.628 µM | 53 µM | 1.51 µM | 31.5 µM | 5.4 µM | 0.517 µM | 3.66 µM | 19.8 µM | 12.9 µM | 22.1 µM | 4.57 µM | 8.2 µM | 4.94 µM | – | 14.3 µM | 15.6 µM | –
7 | Cc1ccc(C(=O)Nc2ccc(CP(=O)(O)O)cc2CP(=O)(O)O)cc1NC(=O)c1cccc(NC(=O)Nc2cccc(C(=O)Nc3cc(C(=O)Nc4ccc(CP(=O)(O)O)cc4CP(=O)(O)O)ccc3C)c2)c1 | > 100 µM | > 100 µM | > 100 µM | > 100 µM | > 100 µM | > 100 µM | > 100 µM | > 100 µM | > 100 µM | > 100 µM | > 100 µM | > 100 µM | > 100 µM | > 100 µM | > 100 µM | > 100 µM | –
8 | COc1cc(/C=C2\C(=O)N(c3ccccc3Cl)C(c3ccccc3)S2(=O)=O)cc(OC)c1OC (centres undefined) | 60.6 µM | > 100 µM | 50.5 µM | > 100 µM | 52.2 µM | > 100 µM | > 100 µM | > 100 µM | > 100 µM | > 100 µM | > 100 µM | > 100 µM | 81.8 µM | 36.4 µM | > 100 µM | > 100 µM | –
9 | Cc1ccc(C2=C(C#N)C(=O)N3CCN=C3S2)cc1 | > 100 µM | > 100 µM | > 100 µM | > 100 µM | > 100 µM | > 100 µM | > 100 µM | > 100 µM | > 100 µM | > 100 µM | > 100 µM | > 100 µM | > 100 µM | > 100 µM | > 100 µM | > 100 µM | –
10 | CC1(c2cccc(Cl)c2)CC(c2cccc(Cl)c2)=C(C#N)C(=C(C#N)C#N)N1 (centres undefined) | 36.4 µM | 35.3 µM | 39 µM | 38 µM | 91.2 µM | 32.3 µM | 34.6 µM | 48.1 µM | 46.4 µM | 48.6 µM | 23 µM | 30.3 µM | 37.8 µM | 57.3 µM | > 100 µM | 34.1 µM | –
11 | CC1(C)OC(CP(c2ccccc2)c2ccccc2)C(CP(c2ccccc2)c2ccccc2)O1 (centres undefined) | > 100 µM | > 100 µM | > 100 µM | 0.947 µM | > 100 µM | > 100 µM | > 100 µM | > 100 µM | 7.73 µM | > 100 µM | > 100 µM | > 100 µM | > 100 µM | > 100 µM | > 100 µM | > 100 µM | 0.173 µM
12 | C#C[C@]1(O)CC[C@H]2[C@@H]3CCC4=C/C(=N/NC(=O)c5cccc6cc7ccccc7nc56)CC[C@@H]4[C@H]3CC[C@@]21CC | > 100 µM | > 100 µM | > 100 µM | 66.2 µM | > 100 µM | > 100 µM | > 100 µM | > 100 µM | > 100 µM | > 100 µM | > 100 µM | > 100 µM | > 100 µM | > 100 µM | > 100 µM | > 100 µM | –
13 | C=CCN1C(=O)/C(=C/c2ccc(C)cc2)NC1=S | > 100 µM | > 100 µM | > 100 µM | > 100 µM | > 100 µM | > 100 µM | > 100 µM | > 100 µM | > 100 µM | > 100 µM | > 100 µM | > 100 µM | > 100 µM | > 100 µM | > 100 µM | > 100 µM | –
14 | Nc1ccc(CCSSCCc2ccc(N)cc2)cc1 | 60.1 µM | > 86.9 µM | > 59.8 µM | > 92.3 µM | 49.7 µM | > 85.2 µM | 89.1 µM | > 74.4 µM | 83.5 µM | > 91.1 µM | > 88.4 µM | 34.4 µM | 41.6 µM | 14.7 µM | > 76.8 µM | 31.9 µM | –
